The test deals with Salmonella typhimurium. Put plainly: Compound was tested in Ames test using Salmonella Typhimurium (TA-92). C is the molar concentration of compound producing 30 mutations/(10e 8) bacteria delivered. To be noted: Salmonella enterica subsp. enterica serovar Typhimurium. It is filed as functional, organism-based. Background: The Ames test detects mutagens through reverse mutation in bacteria.

Twelve substances from ChEMBL document CHEMBL1121592, “Mutagenicity of substituted (o-phenylenediamine)platinum dichloride in the Ames test. A quantitative structure-activity analysis” (J Med Chem, 1980) can be followed below.

Turning to “0-Hexyl-1,3-diamine-platinum 2,2-dichloride”, the Log 1/C stood at 4.22.

In turn, “0-Phenylene-1,3-diamine-platinum 2,2-dichloride-3,4,5-trichloro” returned a Log 1/C of 7.73.

“0-Phenylene-1,3-diamine-platinum 2,2-dichloride-4,5-dichloro” registered a Log 1/C of 6.89.

Substance “0-Phenylene-1,3-diamine-platinum 2,2-dichloride-4-benzoyl” returned a Log 1/C of 7.52.

On to “0-Phenylene-1,3-diamine-platinum 2,2-dichloride-4-carboxylic acid methyl ester”, for which the Log 1/C was found to be 7.

Turning to “0-Phenylene-1,3-diamine-platinum 2,2-dichloride-4-ethoxy”, the Log 1/C came out at 5.6.

In turn, “0-Phenylene-1,3-diamine-platinum 2,2-dichloride-4-methoxy” showed a Log 1/C of 5.65.

In turn, “0-Phenylene-1,3-diamine-platinum 2,2-dichloride-4-methyl” returned a Log 1/C of 5.6.

As for “0-Phenylene-1,3-diamine-platinum 2,2-dichloride-4-nitro”, the Log 1/C came to 8.65.

Regarding “4,5-benzoPhenylene-1,3-diamine-platinum 2,2-dichloride-”, the Log 1/C came to 5.92.

CISPLATIN returned a Log 1/C of 4.52.

“Phenylene-1,3-diamine-platinum 2,2-dichloride-4,5-dimethoxy” gave a Log 1/C of 4.64.
